Patent publication US10071987B2, “Aminomethylene pyrazolones with therapeutic activity” (Compound Handling B.V., priority 2012, dated 2018)
Where “and” joins values, the source holds several entries; their conditions need not be identical. Equal entries are not always repeated.

test system: PC3 cells; assay: Cell invasion assay (BD Biocoat Matrigel Invasion chambers, CellTiter-GLO readout); type: cell-based, human; conditions: Homo sapiens, PC-3, PC3 cells incubated with compound (10 μM) for 4 days prior to assay; 48 hours invasion; versus DMSO treated cells; several values = repeated assays
From the text: For determining the effectiveness of the compounds according to the invention, a model assay based on the migration of cells in a migration chamber was employed. This model is accepted in the art as providing representative data on the ability of cells to metastasize.
The PC-3 prostate cancer cell line (ATCC# CRL-1435) was maintained in RPMI-1640 medium (Invitrogen, 31870), supplemented with 10% Fetal Bovine Serum (Sigma, F7524), L-Glutamine (Invitrogen 25030-024). Cells were split once a week at a 1:10 ratio.
For cell invasion assays, PC3 cells were incubated in the presence of a compound according to the invention (10 μM) for 4 days, prior to the invasion assay. Forty thousand cells were seeded into BD Biocoat Matrigel Invasion chambers (8 micron; BD 354480) in serum-free medium. The invasion chamber was placed in a 24-well containing medium with 10% fetal calf serum as chemo-attractant. As a control, the same amount of cells was seeded in 24-well culture plates. After 48 hours incubation, cells in the invasion chamber were removed by aspiration and cleaning the inner compartment with a cotton swab. The invasion chamber was then put into CellTiter-GLO (CTG, Promega-G7571) cell viability reagent, incubated for 15 minutes, and then analyzed on a Victor3 luminometer. Cell invasion was calculated as the CTG activity on the lower part of the membrane divided by the CTG activity of the cells grown in a 24 well plate. Inhibition of cell invasion by a specific compound was estimated by comparing the amount of cell invasion of compound-treated cells versus DMSO treated cells.

Row | Structure (SMILES) | inhibition at 10 µM
1 | N/C=C1/C(=O)N(c2nc3ccccc3s2)N=C1c1ccccc1 | 52%
2 | COc1ccc(CN/C=C2/C(=O)N(c3nc4ccccc4s3)N=C2c2ccccc2)cc1 | 35%
3 | N/C=C1/C(=O)N(c2nc3ccccc3s2)N=C1c1cccc(Cl)c1 | 91%
4 | N/C=C1/C(=O)N(c2nc3ccc(Cl)cc3s2)N=C1c1ccccc1 | 89%
5 | CC1=NN(c2nc3ccccc3s2)C(=O)/C1=C/N1CCCCC1 | 88%
6 | N/C=C1/C(=O)N(c2nc3ccccc3s2)N=C1c1cccc(Br)c1 | 87%
7 | N/C=C1/C(=O)N(c2nc3ccccc3s2)N=C1c1cccc(I)c1 | 86%
8 | N/C=C1/C(=O)N(c2nc3ccccc3s2)N=C1c1cc2ccccc2s1 | 76%
9 | CN/C=C1/C(=O)N(c2nc3ccccc3s2)N=C1c1cccs1 | 75%
10 | N/C=C1/C(=O)N(c2nc3ccc([N+](=O)[O-])cc3s2)N=C1c1cccc(C(F)(F)F)c1 | 73%
11 | COc1ccc2nc(N3N=C(c4ccccc4)/C(=C\N)C3=O)sc2c1 | 70%
12 | Cc1ccc2nc(N3N=C(c4cccc(C(F)(F)F)c4)/C(=C\N)C3=O)sc2c1 | 67%
13 | Cc1ccc(C2=NN(c3nc4ccccc4s3)C(=O)/C2=C/N)cc1Br | 57%
14 | N/C=C1/C(=O)N(c2nc3ccccc3s2)N=C1c1ccc(Br)s1 | 57%
15 | C/C(NCc1ccc(Cl)c(Cl)c1)=C1\C(=O)N(c2nc3ccccc3s2)N=C1C(F)(F)F | 56%
16 | N/C=C1/C(=O)N(c2nc3ccccc3s2)N=C1c1cccc(C(F)(F)F)c1 [drawing 33] | 91%

same assay, conditions: PC3 cells incubated with compound (10 μM) for 4 days prior to assay; 48 hours invasion; versus DMSO treated cells; several values = repeated assays; 10 µM

Row | Structure (SMILES) | Results % inhibition of invasion in invasion assays
17 | N/C=C1/C(=O)N(c2nc3ccccc3s2)N=C1c1ccccc1 | 49% and 45%
18 | N/C=C1/C(=O)N(c2nc3ccccc3s2)N=C1c1cccc(Br)c1 | 76%
19 | N/C=C1/C(=O)N(c2nc3ccccc3s2)N=C1c1cccc(C(F)(F)F)c1 [drawing 36] | 89% and 82% and 78%

test system: PC-3M-Pro4luc+ cells; assay: Formation of de novo skeletal metastases in mice, whole body bioluminescence imaging; type: in vivo; conditions: treatment of mice
From the text: Treatment of mice with 4-[1-aminomethylidene]-2-benzothiazol-2-yl-5-phenyl-2,4-dihydro-pyrazol-3-one decreased the number of bone lesions and metastatic tumor burden. Cancer cells and tumor burden were monitored by whole body bioluminescence imaging. […] Such in vivo testing may lead to further selection, preference, deselection or disfavor of individual compounds for further programs for development of a compound for use in a prescription medicine. A particular compound of interest for such advanced testing is, 4-(aminomethylene)-2-(2-benzothiazolyl)-2,4-dihydro-5-(3-chlorophenyl)-3H-pyrazol-3-one.

Row | Structure (SMILES) | metastatic tumor burden | number of bone lesions
20 | NC=C1C(=O)N(c2nc3ccccc3s2)N=C1c1ccccc1 [Example 2, 4-[1-Aminomethylidene]-2-benzothiazol-2-yl-5-phenyl-2,4-dihydro-pyrazol-3-one] | decreased | decreased
